{"source": "paper PMC5587909", "about": "“Inhibition of the ATP Synthase Eliminates the Intrinsic Resistance of Staphylococcus aureus towards Polymyxins” (mBio, 2017)", "key": {"S. aureus JE2 (WT)": {"tested_on": "S. aureus JE2 (WT)", "assay_type": "cell-based, Staphylococcus aureus", "details": "2-fold broth microdilution in TSB (100 µl), inoculum approx. 5 × 10^5 cells/ml, 37°C, 22 h", "source_text": "(§1) The strains used in this study include S. aureus strain JE2 (plasmid-cured derivative of USA300 LAC) and all derivative strains within the Nebraska Transposon Mutant Library (NTML), consisting of 1,920 unique transposon mutants with inactivation of nonessential genes ([15]). The bursa aurealis transposon used to create the collection contains the resistance cassette ermB, which confers resistance to erythromycin ([15]). Additionally we used S. aureus SA113 and two derivatives, SA113 ΔdltA ([9]) and SA113 ΔmprF ([10]). All bacterial strains were cultured at 37°C in tryptic soy broth (TSB) or on tryptic soy agar (TSA), with antimicrobial agents added as indicated. Two methods have been employed to determine MICs to various antimicrobial agents. (i) A 2-fold broth microdilution assay in TSB (100 µl) with an initial inoculum of approximately 5 × 10^5 cells/ml was employed to determine the MICs of polymyxin B sulfate (Sigma), gallidermin (Santa Cruz Biotechnology), nisin (Sigma), bacitracin (Sigma), and LL-37 (Isca Biochemicals). (ii) An Etest (BioMérieux) performed on TSA plates was employed to determine MICs for polymyxin B, colistin, ciprofloxacin, oxacillin, linezolid, gentamicin, vancomycin, and daptomycin. The MIC was determined upon incubation at 37°C for 22 h. When indicated, the Etest (BioMérieux) was performed on Mueller-Hinton agar plates (cation adjusted for calcium and magnesium)."}, "[1]": {"tested_on": "S. aureus JE2 atpA mutant", "assay_type": "cell-based, Staphylococcus aureus", "details": "2-fold broth microdilution in TSB (100 µl), inoculum approx. 5 × 10^5 cells/ml, 37°C, 22 h", "source_text": "as §1"}, "[2]": {"tested_on": "S. aureus JE2 graR mutant", "assay_type": "cell-based, Staphylococcus aureus", "details": "2-fold broth microdilution in TSB (100 µl), inoculum approx. 5 × 10^5 cells/ml, 37°C, 22 h; graR mutant", "source_text": "as §1"}, "[3]": {"tested_on": "S. aureus JE2 vraF mutant", "assay_type": "cell-based, Staphylococcus aureus", "details": "2-fold broth microdilution in TSB (100 µl), inoculum approx. 5 × 10^5 cells/ml, 37°C, 22 h; vraF mutant", "source_text": "as §1"}, "[4]": {"tested_on": "S. aureus JE2 vraG mutant", "assay_type": "cell-based, Staphylococcus aureus", "details": "2-fold broth microdilution in TSB (100 µl), inoculum approx. 5 × 10^5 cells/ml, 37°C, 22 h", "source_text": "as §1"}, "S. aureus": {"tested_on": "S. aureus", "details": "cited from earlier work"}}, "note": "Bridge positions count the residues as written; N and C are the ends. Square brackets hold non-standard residues; d marks the D form. Peptide text beside a SMILES is read from it. * marks the point of attachment. Ileψ(thiazoline)Cys = CC[C@H](C)[C@H](N)C1=N[C@H](C(=O)*)CS1; dOrn = NCCC[C@@H](N)C(=O)O"}
{"smiles": "CC[C@H](C)[C@H](N)C1=N[C@H](C(=O)N[C@@H](CC(C)C)C(=O)N[C@H](CCC(=O)O)C(=O)N[C@H](C(=O)N[C@H]2CCCCNC(=O)[C@H](CC(N)=O)NC(=O)[C@@H](CC(=O)O)NC(=O)[C@H](Cc3cnc[nH]3)NC(=O)[C@@H](Cc3ccccc3)NC(=O)[C@H]([C@@H](C)CC)NC(=O)[C@@H](CCCN)NC2=O)[C@@H](C)CC)CS1", "note": "[Bacitracin, bacitracin] ({Ileψ(thiazoline)Cys}-L[dE]IK[dOrn]I[dF]H[dD]N; lactam 4-C (inferred); N-terminus assumed)", "values": [{"measurement": "MIC, WT", "setting": "S. aureus JE2 (WT)", "result": 256, "unit": "µg/mL"}, {"measurement": "MIC, atpA", "setting": "[1]", "result": 128, "unit": "µg/mL"}, {"measurement": "MIC, graR", "setting": "[2]", "result": 128, "unit": "µg/mL"}, {"measurement": "MIC, vraF", "setting": "[3]", "result": 256, "unit": "µg/mL"}, {"measurement": "MIC, vraG", "setting": "[4]", "result": 256, "unit": "µg/mL"}]}
{"smiles": "COc1nc2ccc(Br)cc2cc1[C@@H](c1ccccc1)[C@@](O)(CCN(C)C)c1cccc2ccccc12", "note": "[Bedaquiline, bedaquiline]", "values": [{"measurement": "activity against S. aureus", "setting": "S. aureus", "result": "limited or no activity"}]}
